Results: US20090252788A1, “Balsalazide formulations and manufacture and use thereof” (Salix Pharmaceuticals, Inc., priority 2005, published 2009)

Assay: Particle size distribution and specific surface area (LS 200, Small Volume Module, Fraunhofer optical model)
Type: physicochemical
Details: for Particle size, % < 10: 10% of volume below this size; for Particle size, % < 25: 25% of volume below this size; for Particle size, % < 50: 50% of volume below this size; for Particle size, % < 75: 75% of volume below this size; for Particle size, % < 100: 100% of volume below this size; for Mean particle size (volume statistics, arithmetic) / Median particle size (volume statistics, arithmetic) / Specific Surf. Area: calculations from 0.375 μm to 2000 μm
Text: FIG. 2 depicts and the data below tabulate for Sample 1 the arithmetic statistics describing surface area, particle size, and cumulative volume characteristics for one lot of drug substance (feed material). The particle size distribution for this lot is depicted in FIG. 2.
Table 11 A-D tabulates the arithmetic statistics describing surface area, particle size, and cumulative volume characteristics for three lots of drug substance (feed material). The particle size distributions for these lots are depicted in FIG. 7. […] Of these three lots of drug substance, 100% of the particles are less than 83.89 μm, 373.1 μm, and 69.61 μm, respectively.
Table 12 tabulates the arithmetic statistics describing surface area, particle size, and cumulative volume characteristics for three lots of drug product (encapsulated granulation samples) that were manufactured with the three lots of drug substance (feed material) as depicted in FIG. 7. […] Of these three lots of drug product, 100% of the granules are less than 1660 μm, 2000 μm, and 1512 μm, respectively. The particle size distributions for these three lots are depicted in FIG. 8.

[1] = Particle Diameter (Lower) 0.375 μm
[2] = Particle Diameter (Lower) 0.656 μm
[3] = Particle Diameter (Lower) 1.149 μm
[4] = Particle Diameter (Lower) 2.011 μm
[5] = Particle Diameter (Lower) 3.519 μm
[6] = Particle Diameter (Lower) 6.158 μm
[7] = Particle Diameter (Lower) 10.78 μm
[8] = Particle Diameter (Lower) 18.86 μm
[9] = Particle Diameter (Lower) 33.01 μm
[10] = Particle Diameter (Lower) 57.77 μm
[11] = Particle Diameter (Lower) 101.1 μm
[12] = Particle Diameter (Lower) 176.9 μm
[13] = Particle Diameter (Lower) 309.6 μm
[14] = Particle Diameter (Lower) 541.9 μm
[15] = Particle Diameter (Lower) 948.3 μm
[16] = Particle Diameter (Lower) 1660 μm

Structure (SMILES) | Cum. < Volume % [1] [%] | Diff. Volume % [1] [%] | Cum. < Volume % [2] [%] | Diff. Volume % [2] [%] | Cum. < Volume % [3] [%] | Diff. Volume % [3] [%] | Cum. < Volume % [4] [%] | Diff. Volume % [4] [%] | Cum. < Volume % [5] [%] | Diff. Volume % [5] [%] | Cum. < Volume % [6] [%] | Diff. Volume % [6] [%] | Cum. < Volume % [7] [%] | Diff. Volume % [7] [%] | Diff. Volume % [8] [%] | Cum. < Volume % [9] [%] | Diff. Volume % [9] [%] | Cum. < Volume % [10] [%] | Diff. Volume % [10] [%] | Cum. < Volume % [11] [%] | other results
O=C(O)CCNC(=O)c1ccc(/N=N/c2ccc(O)c(C(=O)O)c2)cc1 [Feed Powder Sample A (#35.$01)] | 0 | 1.82 | 1.82 | 3.88 | 5.70 | 4.90 | 10.6 | 9.30 | 19.9 | 18.4 | 38.3 | 25.7 | 63.9 | 21.8 | 10.2 | 95.9 | 3.32 | 99.3 | 0.75 | 100 | Particle size, % < 10: 1.899 μm; Particle size, % < 25: 4.253 μm; Particle size, % < 50: 8.031 μm; Particle size, % < 75: 13.88 μm; Particle size, % < 100: 83.89 μm; Cum. < Volume % [8]: 85.7%; Diff. Volume % [11]: 0%; Cum. < Volume % [12]: 100%; Diff. Volume % [12]: 0%; Cum. < Volume % [13]: 100%; Mean particle size (volume statistics, arithmetic): 10.85 μm; Median particle size (volume statistics, arithmetic): 8.031 μm; Specific Surf. Area: 14230 cm^2/mL
O=C(O)CCNC(=O)c1ccc(/N=N/c2ccc(O)c(C(=O)O)c2)cc1 [Feed Powder Sample B (#41.$02)] | 0 | 0.64 | 0.64 | 1.50 | 2.15 | 1.94 | 4.08 | 3.16 | 7.24 | 6.98 | 14.2 | 13.9 | 28.1 | 21.3 | 23.1 | 72.5 | 17.0 | 89.5 | 7.10 | 96.6 | Cum. < Volume % [8]: 49.5%; Diff. Volume % [11]: 2.65%; Cum. < Volume % [12]: 99.3%; Diff. Volume % [12]: 0.73%
O=C(O)CCNC(=O)c1ccc(/N=N/c2ccc(O)c(C(=O)O)c2)cc1 [Feed Powder Sample C (#53.$02)] | 0 | 1.96 | 1.96 | 4.37 | 6.33 | 6.03 | 12.4 | 11.3 | 23.7 | 20.6 | 44.2 | 26.7 | 70.9 | 20.7 | 7.30 | 98.9 | 1.07 | 99.99 | 0.013 | 100 | Diff. Volume % [11]: 0%; Cum. < Volume % [12]: 100%; Diff. Volume % [12]: 0%
O=C([O-])CCNC(=O)c1ccc(/N=N/c2ccc(O)c(C(=O)[O-])c2)cc1.[Na+].[Na+] [Sample 1] | 0 | 2.66 | 2.66 | 6.09 | 8.74 | 8.50 | 17.2 | 14.4 | 31.6 | 22.8 | 54.5 | 25.3 | 79.8 | 15.8 | 4.34 | 99.97 | 0.030 | 100 | 0 | 100 | Particle size, % < 10: 1.266 μm; Particle size, % < 25: 2.827 μm; Particle size, % < 50: 5.584 μm; Particle size, % < 75: 9.624 μm; Particle size, % < 100: 43.67 μm; Cum. < Volume % [8]: 95.6%; Diff. Volume % [11]: 0%; Cum. < Volume % [12]: 100%; Diff. Volume % [12]: 0%; Cum. < Volume % [13]: 100%; Diff. Volume % [13]: 0%; Cum. < Volume % [14]: 100%; Diff. Volume % [14]: 0%; Cum. < Volume % [15]: 100%; Diff. Volume % [15]: 0%; Cum. < Volume % [16]: 100%; Diff. Volume % [16]: 0%; Mean particle size (volume statistics, arithmetic): 6.967 μm; Median particle size (volume statistics, arithmetic): 5.584 μm; Specific Surf. Area: 19389 cm^2/mL
O=C([O-])CCNC(=O)c1ccc(/N=N/c2ccc(O)c(C(=O)[O-])c2)cc1.[Na+].[Na+] [Sample 2] | 0 | 2.91 | 2.91 | 6.59 | 9.50 | 9.37 | 18.9 | 16.1 | 35.0 | 24.3 | 59.3 | 24.1 | 83.4 | 12.6 | 3.78 | 99.8 | 0.23 | 100 | 0 | 100 | Particle size, % < 10: 1.192 μm; Particle size, % < 25: 2.586 μm; Particle size, % < 50: 5.044 μm; Particle size, % < 75: 8.715 μm; Particle size, % < 100: 47.94 μm; Cum. < Volume % [8]: 96.0%; Diff. Volume % [11]: 0%; Cum. < Volume % [12]: 100%; Diff. Volume % [12]: 0%; Cum. < Volume % [13]: 100%; Diff. Volume % [13]: 0%; Cum. < Volume % [14]: 100%; Diff. Volume % [14]: 0%; Cum. < Volume % [15]: 100%; Diff. Volume % [15]: 0%; Cum. < Volume % [16]: 100%; Diff. Volume % [16]: 0%; Mean particle size (volume statistics, arithmetic): 6.503 μm; Median particle size (volume statistics, arithmetic): 5.044 μm; Specific Surf. Area: 20709 cm^2/mL
O=C([O-])CCNC(=O)c1ccc(/N=N/c2ccc(O)c(C(=O)[O-])c2)cc1.[Na+].[Na+] [Sample 3] | 0 | 2.13 | 2.13 | 4.92 | 7.05 | 6.97 | 14.0 | 12.1 | 26.1 | 20.4 | 46.4 | 25.7 | 72.2 | 19.8 | 7.20 | 99.2 | 0.79 | 99.997 | 0.0029 | 100 | Particle size, % < 10: 1.498 μm; Particle size, % < 25: 3.385 μm; Particle size, % < 50: 6.679 μm; Particle size, % < 75: 11.50 μm; Particle size, % < 100: 63.41 μm; Cum. < Volume % [8]: 92.0%; Diff. Volume % [11]: 0%; Cum. < Volume % [12]: 100%; Diff. Volume % [12]: 0%; Cum. < Volume % [13]: 100%; Diff. Volume % [13]: 0%; Cum. < Volume % [14]: 100%; Diff. Volume % [14]: 0%; Cum. < Volume % [15]: 100%; Diff. Volume % [15]: 0%; Cum. < Volume % [16]: 100%; Diff. Volume % [16]: 0%; Mean particle size (volume statistics, arithmetic): 8.399 μm; Median particle size (volume statistics, arithmetic): 6.679 μm; Specific Surf. Area: 16802 cm^2/mL
O=C([O-])CCNC(=O)c1ccc(/N=N/c2ccc(O)c(C(=O)[O-])c2)cc1.[Na+].[Na+] [Sample 4] | 0 | 0.61 | 0.61 | 1.55 | 2.17 | 2.46 | 4.62 | 4.37 | 8.99 | 8.23 | 17.2 | 14.1 | 31.3 | 21.2 | 25.5 | 78.0 | 17.2 | 95.3 | 3.43 | 98.7 | Particle size, % < 10: 3.851 μm; Particle size, % < 25: 8.660 μm; Particle size, % < 50: 17.82 μm; Particle size, % < 75: 30.86 μm; Particle size, % < 100: 309.6 μm; Cum. < Volume % [8]: 52.5%; Diff. Volume % [11]: 1.08%; Cum. < Volume % [12]: 99.8%; Diff. Volume % [12]: 0.24%; Cum. < Volume % [13]: 100%; Diff. Volume % [13]: 0%; Cum. < Volume % [14]: 100%; Diff. Volume % [14]: 0%; Cum. < Volume % [15]: 100%; Diff. Volume % [15]: 0%; Cum. < Volume % [16]: 100%; Diff. Volume % [16]: 0%; Mean particle size (volume statistics, arithmetic): 22.93 μm; Median particle size (volume statistics, arithmetic): 17.82 μm; Specific Surf. Area: 7553 cm^2/mL
